From US8609870B2, “Treating various disorders using TrkB agonists” (Emory University, priority 2008, dated 2013)

How the values were obtained:
TrkB [1] = molecular target: T1, TrkB (Mus musculus, UniProt P15209); assay: TrkB activation in mouse brain after i.p. or oral administration; format: in vivo
T1 construct: Brain lysates were prepared and analyzed by immunoblotting; from tissue; host or cells: mouse brain
Experimental: Unless specifically described, brain tissues are fixed in 4% paraformaldehyde overnight followed by paraffin embedding. Sections of 5 μm are cut. For immunohistochemical staining, brain sections are deparaffinized in xylene and rehydrated in graded alcohols. Endogenous peroxidase activity are blocked by 3% hydrogen peroxide for 5 minutes and all slides are boiled in 10 mM sodium citrate buffer (pH 6.0) for 10 minutes. Phosphorylated Trk A, Trk A, phosphorylated Trk B, and Trk B are detected using specific antibodies and, e.g., a Zymed HistostainPlus AEC kit (Invitrogen; Carlsbad, Calif.). Slides then are counterstained with hematoxylin.
To assess whether an identified active compound provokes TrkB activation in the brain, mice are intraperitoneally injected with a dose of 5 mg/kg and analyzed at various time points. […] Further, whether the protein and mRNA levels of the neurotrophic receptors is altered after treatment with an identified active compound is measured.
Both Akt and Erk1/2 were robustly activated by these molecules as well). […] The minimal required drug concentration was about 100-250 nM (see FIG. 7, right panels). […] To assess whether deoxygedunin provokes TrkB activation in the brain, mice (i.p.) were injected with a dose of 5 mg/kg for various time points. […] To establish that deoxygedunin is orally bioactive in provoking TrkB activation, two to three month old C57BL/6J mice were orally injected with various doses of 7,8-dihydroxyflavone or deoxygedunin then sacrificed 2 to 4 hours after administration. Brain lysates were prepared and analyzed by immunoblotting (see FIG. 10).

mice = assay: Forced swim test; format: in vivo, mouse; details: for immobility time: TrkB F616A knockin mice
Experimental: To explore whether an identified active compound has an antidepressant effect like BDNF, a forced swim test is conducted. Adult male mice (2-3 months old) are randomly submitted, without a pre-swim, to a forced swim test of 6 minutes with immobility recorded in the last 4 minutes. The mice are injected intraperitoneally for 5 days with saline, imipramine (20 mg/kg), amitryptyline (15 mg/kg), or an identified active compound (5 mg/kg). The mice are allowed to adapt to the test room for 2 days, and the mice are placed in a clear glass cylinder with a diameter of 16 cm, half-filled with clear water at 24° C.
To investigate whether deoxygedunin mimicked BDNF in suppressing depression-like symptoms, a forced swim test after subchronic treatment of the mice for 5 days with various drugs was conducted. […] To assess whether the behavior responses by 7,8-DHF and deoxygedunin were mediated by TrkB receptor, TrkB F616A knockin mice were used. The transgenic mice were subjected to saline or 1NMPP1 treatment, respectively.

TrkC = molecular target: T2, TrkC (Homo sapiens, UniProt Q16288); assay: Tyrosine phosphorylation of TrkC in transfected HEK293 cells; format: cell-based
T2 construct: expressed in transfected cells; host or cells: HEK293
Text: To determine if an identified active compound promotes tyrosine phosphorylation of the other Trk receptors, HEK293 cells are transfected with various Trk receptors, which is followed by treatment with the identified active compound. Treatment with an identified active compound that elicits tyrosine phosphorylation in the TrkB receptor but not in the TrkA or TrkC receptor indicates an active compound.
To determine whether deoxygedunin binds the intra-cellular domain (ICD) or extra-cellular domain (ECD) of the TrkB receptor, ligand binding assays with [^3H]-deoxygedunin were performed. […] The coprecipitated HA-TrkB was also prominently tyrosine phosphorylated (see FIG. 14, 3rd panel).

TrkB [2] = assay: TrkB activation in cortical neurons from knockout mouse pups; format: cell-based
Experimental: To determine whether an identified active compound selectively activates TrkB receptor and prevents neuronal cell death, cortical neurons are prepared from homozygous pups of TrkB +/− mice, which are mated to the same genotype. The activation of TrkB and down stream indicators of TrkB activation, such as Capase-3, are monitored. To further assess whether an identified active compound blocks neuronal apoptosis in a TrkB dependent manner, cortical neurons are prepared from homozygous pups of […], which are mated to the same genotype. Again, the activation of TrkB and down stream indicators of TrkB activation, such as Capase-3, are monitored.
Additionally, the spontaneous caspase-3 activation in […] was suppressed by deoxygedunin.

T1 sequence (P15209 32-821): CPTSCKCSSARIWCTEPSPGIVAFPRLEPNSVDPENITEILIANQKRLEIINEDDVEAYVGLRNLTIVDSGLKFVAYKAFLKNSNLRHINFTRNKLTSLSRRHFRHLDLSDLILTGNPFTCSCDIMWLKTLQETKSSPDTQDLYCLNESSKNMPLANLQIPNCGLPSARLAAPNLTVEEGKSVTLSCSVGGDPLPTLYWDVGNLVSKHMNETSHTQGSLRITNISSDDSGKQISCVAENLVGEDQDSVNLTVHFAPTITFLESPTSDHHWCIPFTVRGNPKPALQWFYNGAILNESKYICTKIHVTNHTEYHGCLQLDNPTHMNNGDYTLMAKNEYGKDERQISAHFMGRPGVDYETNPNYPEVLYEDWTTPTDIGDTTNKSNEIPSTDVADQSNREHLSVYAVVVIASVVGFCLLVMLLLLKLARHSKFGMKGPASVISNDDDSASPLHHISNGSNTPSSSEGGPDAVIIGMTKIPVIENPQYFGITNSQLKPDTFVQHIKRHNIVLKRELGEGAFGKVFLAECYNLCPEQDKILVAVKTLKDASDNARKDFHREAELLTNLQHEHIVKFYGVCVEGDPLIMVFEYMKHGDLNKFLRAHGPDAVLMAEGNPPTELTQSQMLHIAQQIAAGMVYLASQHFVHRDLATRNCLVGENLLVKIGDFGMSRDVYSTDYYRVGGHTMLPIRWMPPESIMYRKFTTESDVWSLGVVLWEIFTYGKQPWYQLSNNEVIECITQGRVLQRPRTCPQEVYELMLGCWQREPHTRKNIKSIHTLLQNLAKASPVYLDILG
T2 sequence (Q16288 32-839, species assumed): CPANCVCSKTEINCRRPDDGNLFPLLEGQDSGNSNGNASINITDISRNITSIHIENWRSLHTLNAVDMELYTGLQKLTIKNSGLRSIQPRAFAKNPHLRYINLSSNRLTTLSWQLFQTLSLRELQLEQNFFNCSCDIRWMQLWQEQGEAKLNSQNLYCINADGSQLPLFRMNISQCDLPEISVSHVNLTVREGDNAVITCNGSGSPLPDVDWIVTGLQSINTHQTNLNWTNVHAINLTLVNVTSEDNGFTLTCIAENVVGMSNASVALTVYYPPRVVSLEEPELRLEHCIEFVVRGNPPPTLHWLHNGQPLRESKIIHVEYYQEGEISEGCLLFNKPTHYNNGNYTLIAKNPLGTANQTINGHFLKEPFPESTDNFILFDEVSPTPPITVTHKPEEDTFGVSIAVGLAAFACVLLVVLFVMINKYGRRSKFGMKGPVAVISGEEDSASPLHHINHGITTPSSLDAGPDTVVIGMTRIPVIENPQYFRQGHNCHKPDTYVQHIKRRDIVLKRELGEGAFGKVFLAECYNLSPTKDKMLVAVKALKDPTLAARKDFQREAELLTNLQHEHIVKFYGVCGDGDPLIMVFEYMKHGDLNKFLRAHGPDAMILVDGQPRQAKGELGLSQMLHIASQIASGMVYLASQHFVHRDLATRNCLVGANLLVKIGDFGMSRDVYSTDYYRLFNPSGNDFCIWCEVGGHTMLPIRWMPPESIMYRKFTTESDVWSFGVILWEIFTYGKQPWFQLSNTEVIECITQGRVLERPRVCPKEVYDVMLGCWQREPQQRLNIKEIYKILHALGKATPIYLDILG

How did the “time after injection at which TrkB was phosphorylated in the brain” value (TrkB [1]; mice, 5 mg/kg i.p.) turn out when `CC(=O)O[C@@H]1C[C@H]2C(C)(C)C(=O)C=C[C@]2(C)[C@H]2CC[C@]3(C)C(=CC(=O)O[C@H]3c3ccoc3)[C@@]21C` [deoxygedunin] was run?
The value was 2 h.

What about the “time of peak TrkB phosphorylation in the brain” value (TrkB [1]; mice, 5 mg/kg i.p.) of the same molecule?
Its value is 4 to 8 h.

And the blood-brain barrier penetration (TrkB [1]; mice, 5 mg/kg i.p., inferred from brain TrkB phosphorylation)?
Its blood-brain barrier penetration is “penetrated the blood-brain barrier”.

What about the “TrkB activation in hippocampus (immunohistochemistry staining)” value (TrkB [1]; mouse hippocampus upon treatment) of the same molecule?
The value was “robust TrkB activation in hippocampus”.

And the immobility time (mice; TrkB blocked by 1NMPP1)?
The immobility time was “did not have a significant effect”.

And the immobility time (mice; saline group)?
Its immobility time is “substantially reduced the immobility time”.

And the swimming immobility (mice; mice, subchronic treatment 5 days, imipramine 20 mg/kg, deoxygedunin 5 mg/kg)?
The swimming immobility was “reduced the immobility”.

And the “tyrosine phosphorylation in TrkC” value (TrkC)?
The value was “not in TrkA or TrkC receptor”.

And the TrkB activation (TrkB [2]; TrkB −/− cortical neurons)?
The TrkB activation was “not TrkB −/− neurons”.

What about the TrkB activation (TrkB [2]; both wild-type and TrkC knockout neurons) of the same molecule?
The TrkB activation was “strongly provoked TrkB”.

What about the TrkB activation (TrkB [2]; wild-type cortical neurons (pups of TrkB +/− mice)) of the same molecule?
Its TrkB activation is “specifically activated TrkB”.
